# Tests used:
# Test in all cases: In vitro antibacterial evaluation: minimum inhibitory concentration (MIC), broth dilution method
# Type in all cases: cell-based
# Escherichia coli = Escherichia coli (GC 4560); 18 hours at 35° C.
# How it was run: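 MIC read as lowest drug level preventing visible growth. Organisms at 5×10^5 CFU/mL were exposed to a 64-0.06 μg/mL dilution series in Muller-Hinton II […] following NCCLS broth dilution standard M7-A2.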
# Enterococcus sp. = details: 18 hours at 35° C.
# How it was run: (§1)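 Susceptibility determined by NCCLS-recommended broth dilution (M7-A2), Muller-Hinton II […]. Concentration span 64-0.06 μg/mL, inoculum 5×10^5 CFU/mL. Isolates include strains resistant to methicillin, penicillin and/or vancomycin.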
# Staphylococcus sp. = system: Staphylococcus sp.
# How it was run: as §1
# Streptococcus sp. = details: 18 hours at 35° C.
# How it was run: as §1
# [1] = broth dilution, inoculum 5×10^5 CFU/mL
smiles,measurement,setting,value
CC(c1ccccc1)C1NC(=O)CNC(=O)C(CO)NC(=O)C(C(O)C2CN(Cc3ccc(C(F)(F)F)cc3)C(=N)N2C2OC(CO)C(O)C(O)C2O)NC(=O)C(C(O)C2CNC(=N)N2)NC(=O)C(Cc2ccc(OC3OC(CO)C(OC4OC5COC6(OC5C(O)C4O)C4CC5CC(C4)CC6C5)C(O)C3O)cc2)NC1=O (centres unmarked) [Example 226],MIC Escherichia coli (GC 4560),Escherichia coli,4 µg/mL
same,MIC Enterococcus avium (GC 4558),Enterococcus sp.; Enterococcus avium (GC 4558),8 µg/mL
same,MIC Enterococcus faecalis (ATCC 29212),Enterococcus sp.; Enterococcus faecalis (ATCC 29212),32 µg/mL
same,MIC Enterococcus faecalis (GC 2242),Enterococcus sp.; Enterococcus faecalis (GC 2242),16 µg/mL
same,MIC Enterococcus faecalis (GC 2691),Enterococcus sp.; Enterococcus faecalis (GC 2691),32 µg/mL
same,MIC Enterococcus faecalis (GC 3059),Enterococcus sp.; Enterococcus faecalis (GC 3059),32 µg/mL
same,MIC Enterococcus faecalis (GC 4552),Enterococcus sp.; Enterococcus faecalis (GC 4552),32 µg/mL
same,MIC Enterococcus faecalis (GC 4553),Enterococcus sp.; Enterococcus faecalis (GC 4553),16 µg/mL
same,MIC Enterococcus faecalis (GC 4554),Enterococcus sp.; Enterococcus faecalis (GC 4554),32 µg/mL
same,MIC Enterococcus faecalis (GC 6189),Enterococcus sp.; Enterococcus faecalis (GC 6189),32 µg/mL
same,MIC Enterococcus faecium (GC 2243),Enterococcus sp.; Enterococcus faecium (GC 2243),16 µg/mL
same,MIC Enterococcus faecium (GC 4556),Enterococcus sp.; Enterococcus faecium (GC 4556),32 µg/mL
same,MIC Enterococcus faecium (GC 4557),Enterococcus sp.; Enterococcus faecium (GC 4557),2 µg/mL
same,MIC Enterococcus avium (GC 4558),Enterococcus sp.; [1],8 µg/mL
same,MIC Enterococcus faecalis (ATCC 29212),Enterococcus sp.; [1],32 µg/mL
same,MIC Enterococcus faecalis (GC 2242),Enterococcus sp.; [1],16 µg/mL
same,MIC Enterococcus faecalis (GC 2691),Enterococcus sp.; [1],32 µg/mL
same,MIC Enterococcus faecalis (GC 3059),Enterococcus sp.; [1],32 µg/mL
same,MIC Enterococcus faecalis (GC 4552),Enterococcus sp.; [1],32 µg/mL
same,MIC Enterococcus faecalis (GC 4553),Enterococcus sp.; [1],16 µg/mL
same,MIC Enterococcus faecalis (GC 4554),Enterococcus sp.; [1],32 µg/mL
same,MIC Enterococcus faecalis (GC 6189),Enterococcus sp.; [1],32 µg/mL
same,MIC Enterococcus faecium (GC 2243),Enterococcus sp.; [1],16 µg/mL
same,MIC Enterococcus faecium (GC 4556),Enterococcus sp.; [1],32 µg/mL
same,MIC Enterococcus faecium (GC 4557),Enterococcus sp.; [1],2 µg/mL
same,MIC Staphylococcus aureus (ATCC 29213),Staphylococcus sp.; strain ATCC 29213,16 µg/mL
same,MIC Staphylococcus aureus (GC 1131),Staphylococcus sp.; strain GC 1131,16 µg/mL
same,MIC Staphylococcus aureus (GC 3051),Staphylococcus sp.; strain GC 3051,16 µg/mL
same,MIC Staphylococcus aureus (GC 3053),Staphylococcus sp.; strain GC 3053,16 µg/mL
same,MIC Staphylococcus aureus (GC 4541),Staphylococcus sp.; strain GC 4541,8 µg/mL
same,MIC Staphylococcus aureus (GC 4542),Staphylococcus sp.; strain GC 4542,16 µg/mL
same,MIC Staphylococcus aureus-SMITH (GC 4543),Staphylococcus sp.; strain GC 4543,8 µg/mL
same,MIC Staphylococcus aureus (GC 4544),Staphylococcus sp.; strain GC 4544,16 µg/mL
same,MIC Staphylococcus aureus (GC 4545),Staphylococcus sp.; strain GC 4545,16 µg/mL
same,MIC Staphylococcus haemolyticus (GC 4546),Staphylococcus sp.; strain GC 4546,8 µg/mL
same,MIC Coagulase Negative Staphylococcus (GC 4547),Staphylococcus sp.; strain GC 4547,8 µg/mL
same,MIC Coagulase Negative Staphylococcus (GC 4548),Staphylococcus sp.; strain GC 4548,8 µg/mL
same,MIC Coagulase Negative Staphylococcus (GC 4549),Staphylococcus sp.; strain GC 4549,16 µg/mL
same,MIC Coagulase Negative Staphylococcus (GC 4551),Staphylococcus sp.; strain GC 4551,8 µg/mL
same,MIC Coagulase Negative Staphylococcus (GC 6257),Staphylococcus sp.; strain GC 6257,2 µg/mL
same,MIC Streptococcus agalactiae (GC 4564),Streptococcus sp.; Streptococcus agalactiae (GC 4564),4 µg/mL
same,MIC Streptococcus pneumoniae (ATCC 6301),Streptococcus sp.; Streptococcus pneumoniae (ATCC 6301),4 µg/mL
same,MIC Streptococcus pneumoniae (GC 1894),Streptococcus sp.; Streptococcus pneumoniae (GC 1894),0.5 µg/mL
same,MIC Streptococcus pneumoniae (GC 4565),Streptococcus sp.; Streptococcus pneumoniae (GC 4565),4 µg/mL
same,MIC Streptococcus pyogenes (GC 4563),Streptococcus sp.; Streptococcus pyogenes (GC 4563),2 µg/mL
same,MIC Streptococcus agalactiae (GC 4564),Streptococcus sp.; [1],4 µg/mL
same,MIC Streptococcus pneumoniae (ATCC 6301),Streptococcus sp.; [1],4 µg/mL
same,MIC Streptococcus pneumoniae (GC 1894),Streptococcus sp.; [1],0.5 µg/mL
same,MIC Streptococcus pneumoniae (GC 4565),Streptococcus sp.; [1],4 µg/mL
same,MIC Streptococcus pyogenes (GC 4563),Streptococcus sp.; [1],2 µg/mL
